Assay: Inhibition of C3b activation relative to compstatin

Row | Compound | logIC50
1 | CC[C@H](C)[C@H](NC(C)=O)C(=O)N[C@H]1CSSC[C@@H](C(=O)N[C@H](C(N)=O)[C@@H](C)O)NC(=O)[C@H](CCCNC(=N)N)NC(=O)[C@H](Cc2cnc[nH]2)NC(=O)[C@H](C)NC(=O)CNC(=O)[C@H](Cc2c[nH]c3cc(F)ccc23)NC(=O)[C@H](CC(=O)O)NC(=O)[C@H](CCC(N)=O)NC(=O)[C@H](Cc2c[nH]c3cc(F)ccc23)NC(=O)[C@H](C(C)C)NC1=O | 2.1
2 | CC[C@H](C)[C@H](NC(C)=O)C(=O)N[C@H]1CSSC[C@@H](C(=O)N[C@H](C(N)=O)[C@@H](C)O)NC(=O)[C@H](CCCNC(=N)N)NC(=O)[C@H](Cc2cnc[nH]2)NC(=O)[C@H](C)NC(=O)CNC(=O)[C@H](Cc2c[nH]c3ccc(F)cc23)NC(=O)[C@H](CC(=O)O)NC(=O)[C@H](CCC(N)=O)NC(=O)[C@H](Cc2c[nH]c3ccccc23)NC(=O)[C@H](C(C)C)NC1=O | 2.08
3 | CC[C@H](C)[C@H](NC(C)=O)C(=O)N[C@H]1CSSC[C@@H](C(=O)N[C@H](C(N)=O)[C@@H](C)O)NC(=O)[C@H](CCCNC(=N)N)NC(=O)[C@H](Cc2cnc[nH]2)NC(=O)[C@H](C)NC(=O)CNC(=O)[C@H](Cc2c[nH]c3ccc(F)cc23)NC(=O)[C@H](CC(=O)O)NC(=O)[C@H](CCC(N)=O)NC(=O)[C@H](Cc2cn(C)c3ccccc23)NC(=O)[C@H](C(C)C)NC1=O | 2.42
4 | CC[C@H](C)[C@H](NC(C)=O)C(=O)N[C@H]1CSSC[C@@H](C(=O)N[C@H](C(N)=O)[C@@H](C)O)NC(=O)[C@H](CCCNC(=N)N)NC(=O)[C@H](Cc2cnc[nH]2)NC(=O)[C@H](C)NC(=O)CNC(=O)[C@H](Cc2c[nH]c3ccccc23)NC(=O)[C@H](CC(=O)O)NC(=O)[C@H](CCC(N)=O)NC(=O)[C@H](Cc2cccc3ccccc23)NC(=O)[C@H](C(C)C)NC1=O | 1.99
5 | CC[C@H](C)[C@H](NC(C)=O)C(=O)N[C@H]1CSSC[C@@H](C(=O)N[C@H](C(N)=O)[C@@H](C)O)NC(=O)[C@H](CCCNC(=N)N)NC(=O)[C@H](Cc2cnc[nH]2)NC(=O)[C@H](C)NC(=O)CNC(=O)[C@H](Cc2c[nH]c3ccccc23)NC(=O)[C@H](CC(=O)O)NC(=O)[C@H](CCC(N)=O)NC(=O)[C@H](Cc2cn(C)c3ccccc23)NC(=O)[C@H](C(C)C)NC1=O | 2.42
6 | CC[C@H](C)[C@H](NC(C)=O)C(=O)N[C@H]1CSSC[C@@H](C(=O)N[C@H](C(N)=O)[C@@H](C)O)NC(=O)[C@H](CCCNC(=N)N)NC(=O)[C@H](Cc2cnc[nH]2)NC(=O)[C@H](C)NC(=O)CNC(=O)[C@H](Cc2c[nH]c3ncccc23)NC(=O)[C@H](CC(=O)O)NC(=O)[C@H](CCC(N)=O)NC(=O)[C@H](Cc2c[nH]c3ncccc23)NC(=O)[C@H](C(C)C)NC1=O | -0.358

Continued, values first:

Row | logIC50 | Compound
7 | 1.79 | CC[C@H](C)[C@H](NC(C)=O)C(=O)N[C@H]1CSSC[C@@H](C(=O)N[C@H](C(N)=O)[C@@H](C)O)NC(=O)[C@H](CCCNC(=N)N)NC(=O)[C@H](Cc2cnc[nH]2)NC(=O)[C@H](C)NC(=O)CNC(=O)[C@H](Cc2c[nH]c3ccccc23)NC(=O)[C@H](CC(=O)O)NC(=O)[C@H](CCC(N)=O)NC(=O)[C@H](Cc2c[nH]c3ccc(C)cc23)NC(=O)[C@H](C(C)C)NC1=O
8 | 1.65 | CC[C@H](C)[C@H](NC(C)=O)C(=O)N[C@H]1CSSC[C@@H](C(=O)N[C@H](C(N)=O)[C@@H](C)O)NC(=O)[C@H](CCCNC(=N)N)NC(=O)[C@H](Cc2cnc[nH]2)NC(=O)[C@H](C)NC(=O)CNC(=O)[C@H](Cc2c[nH]c3ccccc23)NC(=O)[C@H](CC(=O)O)NC(=O)[C@H](CCC(N)=O)NC(=O)[C@H](Cc2c[nH]c3ccccc23)NC(=O)[C@H](C(C)C)NC1=O
9 | 1.49 | CC[C@H](C)[C@H](NC(C)=O)C(=O)N[C@H]1CSSC[C@@H](C(=O)N[C@H](C(N)=O)[C@H](C)O)NC(=O)[C@H](CCCNC(=N)N)NC(=O)[C@H](Cc2cnc[nH]2)NC(=O)[C@H](C)NC(=O)CNC(=O)[C@H](Cc2c[nH]c3ccccc23)NC(=O)[C@H](CC(=O)O)NC(=O)[C@H](CCC(N)=O)NC(=O)[C@H](Cc2c[nH]c3ccc(F)cc23)NC(=O)[C@H](C(C)C)NC1=O

— ChEMBL document CHEMBL1140602, “A simple, yet highly accurate, QSAR model captures the complement inhibitory activity of compstatin” (Bioorg Med Chem, 2007)
